# Laboratory results as given in PubChem BioAssay AID1963970 (Molecular Pharmacology Branch, DTP, NCI, 2024).
# “And” between values parts separate entries of the source, which are not always exact repeats. Equal entries are not always repeated.
# System: 931267-113-T-J1-PDC multicell spheroid viability
# Assay: Anticancer human tumor 931267-113-T-J1-PDC patient-derived colon adenocarcinoma cell line growth inhibition [PI3K]
# Conditions: for viability, T/C: stronger effect = lower value
# Excerpt: Combinatorial screen of targeted agents with the PI3K inhibitors inavolisib, alpelisib, duvelisib, and copanlisib in multi-cell type tumor spheroids
# A high-throughput screen of multi-cell type tumor spheroids was designed to identify active combinations of targeted small molecules and PI3K pathway inhibitors. Complex spheroids include a stromal component modeled by human endothelial cells (HUVEC) and fibroblasts modeled by human mesenchymal stem cells (MSCs). The concentration ranges selected for each drug and investigational agent were based upon clinically achievable concentrations if the clinical Cmax of the agent was known.
# Compounds. The drugs and investigational agents: inavolisib (NSC800729), alpelisib (NSC765974), duvelisib (NSC772469), copanlisib (NSC816437), ipatasertib (NSC767898), afuresertib (NSC778305), talazoparib (NSC767125), sapanisertib (NSC764658), selumetinib (NSC741078), tovorafenib (DAY101, NSC766906), vemurafenib (NSC761431), ravoxertinib (NSC781343), sotorasib (NSC818433), MRTX1133 (NSC 836407), abemaciclib (NSC 768073), palbociclib (NSC758247), venetoclax (NSC 766270), SY5609 (NSC837396), enzalutamide (NSC755605), and darolutamide (NSC825331), were obtained from the National Cancer Institute (NCI) Developmental Therapeutics Program Chemical Repository. The FDA-approved anticancer drug set is available from the NCI Developmental Therapeutics Program. […] The stock solutions were prepared in dimethyl sulfoxide (DMSO, Sigma-Aldrich, St. Louis, MO, cat. D2650) at 800-fold the tested concentration and stored at -70 degrees C prior to their use. All drugs and investigational agents were tested over a range starting from a high concentration at or near the clinical Cmax and decreasing in half-log increments. If the clinical Cmax for an agent had not been determined, the highest concentration tested was 10 microM.
# Cell Culture. All cells were maintained in an incubator at 37 degrees C and 5% CO2 with 95% humidity. The PDC lines were cultured according to standard operating procedures established by the NCI PDMR (https://pdmr.cancer.gov/sops/default.htm). All PDCs were thawed and cultured in Matrigel-coated flasks prepared with a working solution of 1X Ham's F-12 nutrient mix, without supplementation (Invitrogen, Waltham, MA, cat. 11765054), 100 U/mL penicillin-streptomycin (Invitrogen, cat. 15140122), and 2.5% Matrigel (Corning Inc., Corning, NY, cat. 354248) for the first three passages. The 354836-022-R-J1-PDC, 475296-252-R-J1-PDC, and 997726-040-R-J2-PDC lines were cultured in 6A media, which includes advanced DMEM/F-12 (Thermo Fisher Scientific, cat. 12634028), 10 mM HEPES (Thermo Fisher Scientific, cat. 15630080), 1X GlutaMAX supplement (Thermo Fisher Scientific, cat. 35050061), 0.1 mg/mL primocin (InvivoGen, San Diego, CA, cat. ant-pm-2), 10% defined fetal bovine serum, heat inactivated (HyClone Laboratories Inc., Logan, UT, cat. SH30070.03HI), 50% L-WRN conditioned media (ATCC, cat. CRL-3276), 1.25 mM N-Acetyl-L-cysteine (Sigma-Aldrich, cat. A9165), 10 mM nicotinamide (Sigma-Aldrich, cat. N0636), 1X B-27 supplement (Thermo Fisher Scientific, cat. 17504044), 1X N-2 supplement (Thermo Fisher Scientific, cat. 17502048), and 10 microM Y-27632 dihydrochloride (Tocris Bioscience, Bristol, United Kingdom, cat. 1254). The 624824-186-R-J2-PDC line was cultured in 6C/Colon 1B media, which includes all 6A media components plus 50 ng/mL human EGF recombinant protein (Thermo Fisher Scientific, cat. PHG0311). […]
# [1] = compound alone, run of 05/08/2023
# [2] = compound alone, run of 05/09/2023
# 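Further: viability read 7 days after compound addition.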
SMILES,IC50 (curve of compound),IC50 [1],IC50 [2],"viability, T/C (compound 0.0316 µM)","viability, T/C (compound 0.316 µM)","viability, T/C (compound 1 µM)","viability, T/C (compound 3.16 µM)","viability, T/C (compound 10 µM)","viability, T/C (compound 0.000316 µM)","viability, T/C (compound 0.001 µM)","viability, T/C (compound 0.00316 µM)","viability, T/C (compound 0.01 µM)","viability, T/C (compound 0.1 µM)","viability, T/C (compound 0.00949 µM)","viability, T/C (compound 0.03 µM)","viability, T/C (compound 0.0949 µM)","viability, T/C (compound 0.3 µM)","viability, T/C (compound 0.949 µM)","viability, T/C (compound 3 µM)"
CC(C)n1nc(-c2ccc3oc(N)nc3c2)c2c(N)ncnc21,84.8 nM and 92.4 nM and > 100 nM,,,81.6% [middle of 4 runs],,,,,101% [middle of 4 runs],88.2% and 95% (2×) and 92.1%,96.8% [middle of 4 runs],96.1% [middle of 4 runs],52.2% [middle of 4 runs],,,,,,
CC(Cn1ccc(-c2ccc(C#N)c(Cl)c2)n1)NC(=O)c1cc(C(C)O)[nH]n1 (stereo not given),> 10000 nM,,,109% and 95.2% and 110%,109% and 108% and 101%,117% and 108% and 106%,98.7% and 110% and 107%,103% and 102% and 108%,,,,,107% and 94.8% and 102%,,,,,,
CC(Nc1ccc2c(c1)OCCn1cc(N3C(=O)OCC3C(F)F)nc1-2)C(N)=O (stereo not given),,> 1000 nM,,96.4% [middle of 8 runs],86% [middle of 8 runs],83.1% [middle of 8 runs],,,,,99.8% [middle of 8 runs],100% [middle of 8 runs],83.7% [middle of 8 runs],,,,,,
CC(Nc1ncnc2nc[nH]c12)c1cc2cccc(Cl)c2c(=O)n1-c1ccccc1 (stereo not given),,,> 10000 nM,102% [middle of 8 runs],102% [middle of 8 runs],100% [middle of 8 runs],99.7% [middle of 8 runs],96.7% [middle of 8 runs],,,,,99.7% [middle of 8 runs],,,,,,
CC1(C)CCC(CN2CCN(c3ccc(C(=O)NS(=O)(=O)c4ccc(NCC5CCOCC5)c([N+](=O)[O-])c4)c(Oc4cnc5[nH]ccc5c4)c3)CC2)=C(c2ccc(Cl)cc2)C1,,,,97.9% [middle of 4 runs],106% [middle of 4 runs],103% [middle of 4 runs],93.7% and 104% and 105% (2×),,,,,,95.5% [middle of 4 runs],,,,,,
CCCS(=O)(=O)Nc1ccc(F)c(C(=O)c2c[nH]c3ncc(-c4ccc(Cl)cc4)cc23)c1F,6.15 µM [middle of 4 runs],,,102% (2×) and 106% and 94%,109% [middle of 4 runs],129% [middle of 4 runs],,5.21% [middle of 4 runs],,,,,116% (2×) and 93.5% and 96.7%,,,,,,
CNC(=O)c1ccc(N2C(=S)N(c3ccc(C#N)c(C(F)(F)F)c3)C(=O)C2(C)C)cc1F,> 10000 nM,,,104% [middle of 4 runs],98.2% [middle of 4 runs],101% [middle of 4 runs],102% and 108% (2×) and 105%,108% and 105% (2×) and 93.6%,,,,,103% [middle of 4 runs],,,,,,
C[C@@H](NC(=O)c1ncnc(N)c1Cl)c1ncc(C(=O)Nc2cc(C(F)(F)F)c(Cl)cn2)s1,> 10000 nM,,,117% [middle of 4 runs],111% [middle of 4 runs],114% [middle of 4 runs],102% (2×) and 112% and 103%,78% [middle of 4 runs],,,,,112% [middle of 4 runs],,,,,,
Cn1cnc2c(F)c(Nc3ccc(Br)cc3Cl)c(C(=O)NOCCO)cc21,118 nM [middle of 4 runs],,,,,,,,,,,,,89.7% [middle of 4 runs],67.5% [middle of 4 runs],53.3% [middle of 4 runs],35.9% [middle of 4 runs],22.4% [middle of 4 runs],12.2% (2×) and 12.7% and 13.3%
Cn1nccc1Nc1nccc(-c2ccn(C(CO)c3ccc(Cl)c(F)c3)c(=O)c2)n1 (stereo not given),,,,100% [middle of 4 runs],90.2% [middle of 4 runs],74.1% [middle of 4 runs],67.2% [middle of 4 runs],40.4% [middle of 4 runs],,,,,91.3% [middle of 4 runs],,,,,,
Cn1ncnc1[C@H]1c2n[nH]c(=O)c3cc(F)cc(c23)N[C@@H]1c1ccc(F)cc1,> 100 nM,,,112% [middle of 4 runs],,,,,104% [middle of 4 runs],107% [middle of 4 runs],101% [middle of 4 runs],111% and 106% and 97% (2×),95.6% [middle of 4 runs],,,,,,

# Now from value to compound, other results behind:
IC50 (curve of compound),IC50 [1],IC50 [2],SMILES,"viability, T/C (compound 0.0316 µM)","viability, T/C (compound 0.316 µM)","viability, T/C (compound 1 µM)","viability, T/C (compound 3.16 µM)","viability, T/C (compound 10 µM)","viability, T/C (compound 0.000316 µM)","viability, T/C (compound 0.001 µM)","viability, T/C (compound 0.00316 µM)","viability, T/C (compound 0.01 µM)","viability, T/C (compound 0.1 µM)","viability, T/C (compound 0.00949 µM)","viability, T/C (compound 0.03 µM)","viability, T/C (compound 0.0949 µM)","viability, T/C (compound 0.3 µM)","viability, T/C (compound 0.949 µM)","viability, T/C (compound 3 µM)"
> 10000 nM,,,C=CC(=O)N1CCN(c2nc(=O)n(-c3c(C)ccnc3C(C)C)c3nc(-c4c(O)cccc4F)c(F)cc23)C(C)C1 (stereo not given),119% and 104% (2×) and 102%,106% [middle of 4 runs],109% [middle of 4 runs],108% and 110% (2×) and 107%,104% and 105% (2×) and 99.7%,,,,,,,,,,,
> 100 nM,,,CC(=O)c1c(C)c2cnc(Nc3ccc(N4CCNCC4)cn3)nc2n(C2CCCC2)c1=O,99.5% and 106% and 104%,,,,,112% and 99.6% and 105%,110% and 101% and 102%,103% and 113% and 106%,108% and 111% and 103%,89.5% and 91.3% and 105%,,,,,,
> 10000 nM,,,CC(C)NCC(C(=O)N1CCN(c2ncnc3c2C(C)CC3O)CC1)c1ccc(Cl)cc1 (stereo not given),99.5% [middle of 4 runs],98.5% [middle of 4 runs],99.6% [middle of 4 runs],89.5% [middle of 4 runs],80.2% [middle of 4 runs],,,,,95.4% [middle of 4 runs],,,,,,
> 10000 nM,,,CC1(C)CCC(Nc2ncc(C(F)(F)F)c(-c3c[nH]c4c(P(C)(C)=O)c(C#N)ccc34)n2)CN1 (stereo not given),107% [middle of 4 runs],89.3% [middle of 4 runs],85.7% [middle of 4 runs],,64.5% [middle of 4 runs],,,,,102% [middle of 4 runs],,,,,,
> 1000 nM,,,CCN1CCN(Cc2ccc(Nc3ncc(F)c(-c4cc(F)c5nc(C)n(C(C)C)c5c4)n3)nc2)CC1,103% [middle of 4 runs],96.2% [middle of 4 runs],84.8% [middle of 4 runs],,,,,101% [middle of 4 runs],105% (2×) and 103% and 99.8%,102% (2×) and 100% and 96.4%,,,,,,
,,375 nM [middle of 8 runs],COc1c(OCCCN2CCOCC2)ccc2c3n(c(=NC(=O)c4cnc(N)nc4)nc12)CCN3,80.6% [middle of 8 runs],51% [middle of 8 runs],39.6% [middle of 8 runs],,,,,101% [middle of 8 runs],95.7% [middle of 8 runs],67.6% [middle of 8 runs],,,,,,
,> 10000 nM,,Cc1nc(NC(=O)N2CCCC2C(N)=O)sc1-c1ccnc(C(C)(C)C(F)(F)F)c1 (stereo not given),99.6% [middle of 7 runs],84.8% [middle of 7 runs],80.8% [middle of 7 runs],74.6% [middle of 7 runs],63.1% [middle of 7 runs],,,,,94.8% [middle of 7 runs],,,,,,
